Measurements taken from BindingDB's records for patent US20250179023 (Abbisko Therapeutics, 2025).

Target: Programmed cell death 1 ligand/protein 1 (Homo sapiens, UniProt Q9NZQ7)
Assay: PD1-PDL1 HTRF Binding Activity Test
Method: The effect of compounds of the examples of the present invention on the PD-1/PD-L1 interaction was determined by the PD-1/PD-L1 binding assay kit from Cisbio (#64ICP01PEG or 64ICP01PEH).

Chain of Programmed cell death 1 ligand/protein 1 (Q9NZQ7 whole entry): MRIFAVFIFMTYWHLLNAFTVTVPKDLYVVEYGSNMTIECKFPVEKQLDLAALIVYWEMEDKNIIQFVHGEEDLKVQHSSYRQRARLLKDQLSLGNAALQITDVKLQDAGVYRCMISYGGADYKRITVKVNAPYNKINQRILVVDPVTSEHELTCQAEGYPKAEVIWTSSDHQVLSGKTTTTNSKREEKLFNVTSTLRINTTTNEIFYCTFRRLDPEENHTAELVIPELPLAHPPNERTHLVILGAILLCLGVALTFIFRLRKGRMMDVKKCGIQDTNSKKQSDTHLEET
Chain of Programmed cell death 1 ligand/protein 1 (Q15116 whole entry, further chain): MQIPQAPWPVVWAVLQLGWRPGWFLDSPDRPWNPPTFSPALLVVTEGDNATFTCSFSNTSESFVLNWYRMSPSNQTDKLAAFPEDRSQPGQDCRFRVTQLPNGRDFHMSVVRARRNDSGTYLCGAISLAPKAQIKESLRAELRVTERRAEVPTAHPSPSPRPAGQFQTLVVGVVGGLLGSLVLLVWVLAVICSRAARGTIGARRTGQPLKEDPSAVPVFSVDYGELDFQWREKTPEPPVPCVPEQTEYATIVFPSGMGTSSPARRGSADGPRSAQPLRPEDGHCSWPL

Compound: Cc1c(NC(=O)c2cc(C3CC3)c(CNCCC34CCC(C(=O)O)(CC3)C4)cn2)cccc1-c1cccc(NC(=O)c2cc(C3CC3)c(CNC34CCC(C(=O)O)(CC3)C4)cn2)c1C [US20250179023, Example 5]
- IC50: 4.19 nM
